From US20190046536A1, “Combination Therapy” (Eli Lilly and Company, priority 2016, published 2019)

Assay: Stability of the crystal form
Type: physicochemical
Settings: room temperature and relative humidity greater than about 15%

COc1cnc(C(=O)Nc2ccc(F)c([C@]34CN(c5ncc(F)cn5)C[C@H]3CSC(N)=N4)c2)cn1 [Example 2, N-[3-[(4aR,7aS)-2-Amino-6-(5-fluoropyrimidin-2-yl)-4,4a, 5,7-tetrahydropyrrolo[3,4-d][1,3]thiazin-7a-yl]-4-fluoro-phenyl]-5-methoxy-pyrazine-2-carboxamide]
crystal form stability: stable crystal form
